This note sets out measurements from US20110124674A1, “5/5-OR 5/6-MEMBERED CONDENSED RING CYCLOALKYLAMINE DERIVATIVE” (priority 2008, published 2011).

The structures appear in SMILES notation.

For the test, the target named is T1, human MCH-1R (Homo sapiens, UniProt Q99705).
T1 construct: expressed in transfected cells; host or cells: CHO-K1 (American Type Culture Collection), vector pEF/myc/cyto
Kind of test: MCH binding inhibition test ([125I]MCH binding to membranes of MCH-1R expressing CHO-K1 cells). As to conditions: membranes of CHO-K1 cells expressing human MCH-1R; 50 pM [125I]MCH; 25° C., 1 hour; pH 7.4; read-out: IC50 (50% inhibition concentration of test compound to the specific [125I]MCH binding). An excerpt: Pharmacological Test Example: MCH Binding Inhibition Test
A human MCH-1R encoding cDNA sequence [FEBS Letters, Vol. 398, 253 (1996); Biochimica et Biophisica Acta, Vol. 1401, 216 (1998)] was cloned to a plasmid vector pEF/myc/cyto (by Invitrogen Corporation). The obtained expression vector was transfected to host cells CHO-K1 (American Type Culture Collection) using Lipofectamine Plus Reagent (by Life Technology Inc.) to provide MCH-1R expression cells.
Membrane samples prepared from the MCH-1R expression cells were incubated with each test compound and 50 pM of [^125I]MCH (by NEN Co.), in an assay buffer (50 mM Tris buffer comprising 10 mM magnesium chloride, 2 mM ethylenediamine tetraacetate, 0.01% bacitracin and 0.2% bovine serum albumin; pH 7.4) at 25° C. for an hour, followed by filtration through a glass filter GF/C (by Wattman Co.). After washing the glass filter with 50 mM Tris buffer (pH 7.4) comprising 10 mM magnesium chloride, 2 mM ethylenediamine tetraacettic acid and 0.04% Tween-20, the radio activity on the glass filter was measured. The non-specific binding was measured in the presence of 1 μM human MCH, and the 50% inhibition concentration (IC50 value) of each test compound to the specific [^125I]MCH binding was determined.

T1 sequence (Q99705 whole entry): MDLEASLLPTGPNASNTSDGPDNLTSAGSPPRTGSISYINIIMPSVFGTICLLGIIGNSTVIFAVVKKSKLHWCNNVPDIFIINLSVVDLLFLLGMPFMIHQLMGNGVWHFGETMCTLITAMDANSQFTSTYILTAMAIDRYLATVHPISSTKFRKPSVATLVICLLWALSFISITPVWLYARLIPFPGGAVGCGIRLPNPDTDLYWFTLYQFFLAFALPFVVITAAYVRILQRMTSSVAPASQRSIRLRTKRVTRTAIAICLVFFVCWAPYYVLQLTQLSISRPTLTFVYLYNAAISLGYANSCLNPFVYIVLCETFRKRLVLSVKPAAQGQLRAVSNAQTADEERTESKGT

Regarding `COc1cc(C(=O)NC2CCN(Cc3cc4sccc4n3C)CC2)cc(OC)c1C` [Example 2-25, 4-methyl-3,5-bis(methyloxy)-N-{1-[(4-methyl-4H-thieno[3,2-b]pyrrol-5-yl)methyl]-4-piperidinyl]benzamide], the IC50 is 0.016 µM.

In the case of `COc1cc(C(=O)NC2CCN(Cc3[nH]c4ccccc4c3C)CC2)cc(OC)c1C` [Example 2-18, 4-methyl-N-{1-[(3-methyl-1H-indol-2-yl)methyl]-4-piperidinyl}-3,5-bis(methyloxy)benzamide], the IC50 amounted to 0.0068 µM.

Turning to `COc1cc(C(=O)NC2CCN(Cc3c(C)n(C)c4ccccc34)CC2)cc(OC)c1C` [Example 2-5, N-{1-[(1,2-dimethyl-1H-indol-3-yl)methyl]-4-piperidinyl}-4-methyl-3,5-bis(methyloxy)benzamide], the IC50 is 0.026 µM.

Consider `C#CCn1cc(CN2CCC(NC(=O)c3cc(OC)c(C)c(OC)c3)CC2)c2ccccc21` [Example 2-10, 4-methyl-3,5-bis(methyloxy)-N-(1-{[1-(2-propyn-1-yl)-1H-indol-3-yl]methyl}-4-piperidinyl)benzamide], for which the IC50 is 0.022 µM.

Take `COc1cc(C(=O)NC2CCN(Cc3cn(C)c4ccccc34)CC2)cc(OC)c1C` [Example 2-2, 4-methyl-N-{1-[(1-methyl-1-H-indol-3-yl)methyl]-4-piperidinyl}-3,5-bis(methyloxy)benzamide]: the IC50 turned out to be 0.013 µM.
